The values that follow come from patent US11873291B2, “Quinoline cGAS antagonist compounds” (ImmuneSensor Therapeutics, Inc., priority 2020, dated 2024).

Where two headings read alike, the source gives them in different places. Bounds are passed on as bounds.

This experiment concerns the target T1, recombinant human cGAS (aa147-522) (Homo sapiens, UniProt Q8N884).
T1 construct: recombinant human cGAS (aa147-522); His6-SUMO (cleaved yes); made in house; host or cells: E. coli BL21/pLys
Put plainly: In vitro inhibition assay of cGAS activity (ATP consumption, KinaseGlo Max). Format: biochemical. A digest of the protocol:
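De-tagged recombinant human cGAS (aa147-522, 1.5 μg/mL) was incubated 20 min at 37 °C with herring testis DNA, 6.6 μM ATP and 0.1 mM GTP in Tris pH 7.5/MgCl2 buffer plus serial compound dilutions. Remaining ATP was read by KinaseGlo Max luminescence, and IC50 was fitted from % ATP consumption versus log concentration.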

Where [1] appears, read: Table 2, read-out: cGAS Inhibition Results IC50.
[2] abbreviates: Table 3, read-out: cGAS Inhibition Results IC50.

T1 sequence (Q8N884 147-522): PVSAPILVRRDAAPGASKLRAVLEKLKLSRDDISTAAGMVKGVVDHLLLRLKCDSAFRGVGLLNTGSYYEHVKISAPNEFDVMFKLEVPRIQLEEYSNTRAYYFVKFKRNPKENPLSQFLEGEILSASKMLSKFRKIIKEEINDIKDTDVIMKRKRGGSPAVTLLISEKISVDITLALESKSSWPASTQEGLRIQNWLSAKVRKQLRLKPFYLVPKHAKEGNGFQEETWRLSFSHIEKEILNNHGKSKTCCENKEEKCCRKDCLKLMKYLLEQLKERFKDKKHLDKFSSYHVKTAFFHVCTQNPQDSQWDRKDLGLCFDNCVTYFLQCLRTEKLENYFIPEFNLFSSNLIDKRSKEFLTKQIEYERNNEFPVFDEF

For orientation: IC50 means the concentration that gives 50% inhibition. In the case of `O=C(O)CC1CCN(c2cc(-n3ccnc3)c3ccc(Cl)cc3n2)C1` (stereo not drawn) [I-446], the IC50 under setting [1] lay within 2000 to 30000 nM.
As for `CCOC(=O)C1CCN(c2cc(-n3ccnc3)c3ccc(Cl)cc3n2)C1` (stereo not drawn) [I-447], the IC50 under setting [1] was more than 30000 nM.
In the case of `O=C(NO)[C@@H]1CCCN1c1cc(-n2ccnc2)c2ccc(Cl)c(Cl)c2n1` [I-449], the concentration for half-maximal inhibition (IC50) under setting [1] is less than 2000 nM.
Take `CNC(=O)[C@@H]1CCCN1c1cc(-n2ccnc2)c2ccc(Cl)c(Cl)c2n1` [I-450]: the IC50 under setting [1] was 2000 to 30000 nM.
As to `CCNC(=O)[C@@H]1CCCN1c1cc(-n2ccnc2)c2ccc(Cl)c(Cl)c2n1` [I-451], the IC50 under setting [1] lay in the range of 2000 to 30000 nM.
The same measure, in the same setting: with `O=C(NCCO)[C@@H]1CCCN1c1cc(-n2ccnc2)c2ccc(Cl)c(Cl)c2n1` [I-452] the figure was 2000 to 30000 nM; with `CN(C)C(=O)[C@@H]1CCCN1c1cc(-n2ccnc2)c2ccc(Cl)c(Cl)c2n1` [I-453], more than 30000 nM; with `O=C(C[C@@H]1CCCN1c1cc(-c2cn[nH]c2)c2ccc(Cl)c(Cl)c2n1)N1CCC[C@H]1CO` [I-454], less than 2000 nM.
Consider `O=C(O)[C@@H]1C[C@H](O)CN1c1cc(-n2ccnc2)c2ccc(Cl)c(Cl)c2n1` [I-455], for which the IC50 under setting [2] was less than 2000 nM.
`C[C@]1(C(=O)O)CCCN1c1cc(-n2ccnc2)c2ccc(Cl)c(Cl)c2n1` [I-456]: the IC50 under setting [2] is more than 30000 nM.
Still for that read-out and setting: with `O=C(O)C1(c2ccccc2)CCCN1c1cc(-n2ccnc2)c2ccc(Cl)c(Cl)c2n1` (stereo not drawn) [I-457] the figure was 2000 to 30000 nM.
Turning to `COC(=O)c1cccn1-c1cc(-n2ccnc2)c2ccc(Cl)c(Cl)c2n1` [I-458], the IC50 under setting [2] lay in the range of 2000 to 30000 nM.
With `COC(=O)[C@@H]1C[C@H](O)CN1c1cc(-n2ccnc2)c2ccc(Cl)c(Cl)c2n1` [I-459], under setting [2], the IC50 is 2000 to 30000 nM.
Same read-out and setting: with `CCOC(=O)[C@@H]1CC[C@H](C)N1c1cc(-n2ccnc2)c2ccc(Cl)c(Cl)c2n1` [I-460] the figure was 2000 to 30000 nM.
As to `COC(=O)[C@@H]1C[C@H](C(F)(F)F)CN1c1cc(-n2ccnc2)c2ccc(Cl)c(Cl)c2n1` [I-462], under setting [2], the IC50 fell in the range of 2000 to 30000 nM.
Still for that read-out and setting: the same measure for `COC[C@@H]1CC[C@@H](C(=O)O)N1c1cc(-n2ccnc2)c2ccc(Cl)c(Cl)c2n1` [I-463]: 2000 to 30000 nM; for `Clc1ccc2c(-n3ccnc3)cc(N3CCC(c4nn[nH]n4)C3)nc2c1Cl` (stereo not drawn) [I-464]: less than 2000 nM.
Turning to `Clc1ccc2c(-n3ccnc3)cc(N3CCC[C@H]3c3nn[nH]n3)nc2c1Cl` [I-465], under setting [2], the IC50 was less than 2000 nM.
As to `O=C(O)[C@@H]1C[C@H](F)CN1c1cc(-n2ccnc2)c2ccc(Cl)c(Cl)c2n1` [I-466], the IC50 under setting [2] was less than 2000 nM.
For the molecule `O=C(O)c1ccc(C2CCCN2c2cc(-n3ccnc3)c3ccc(Cl)c(Cl)c3n2)s1` (stereo not drawn) [I-468], the IC50 under setting [2] is 2000 to 30000 nM.
`COC(=O)[C@@H]1C[C@@H](O)CN1c1cc(-n2ccnc2)c2ccc(Cl)c(Cl)c2n1` [I-472]: under setting [2], the IC50 was in the range of 2000 to 30000 nM.
Consider `O=C(O)C12CC(CN1c1cc(-n3ccnc3)c3ccc(Cl)c(Cl)c3n1)C2` [I-474], for which, under setting [2], the IC50 was in the range of 2000 to 30000 nM.
The same measure, in the same setting: the same measure for `CC12CN(c3cc(-n4ccnc4)c4ccc(Cl)c(Cl)c4n3)C(C(=O)O)(C1)C2` [I-475]: 2000 to 30000 nM; for `O=C(O)[C@@H]1Cc2ccccc2N1c1cc(-n2ccnc2)c2ccc(Cl)c(Cl)c2n1` [I-476]: 2000 to 30000 nM; for `CC1(C)C[C@@H](C(=O)O)N(c2cc(-n3ccnc3)c3ccc(Cl)c(Cl)c3n2)C1` [I-479]: less than 2000 nM.
In the case of `O=C(O)[C@@H]1[C@H]2C[C@H]2CN1c1cc(-n2ccnc2)c2ccc(Cl)c(Cl)c2n1` [I-480], the IC50 under setting [2] is less than 2000 nM.
For the molecule `C[C@@H]1C[C@@H](C(=O)O)N(c2cc(-n3ccnc3)c3ccc(Cl)c(Cl)c3n2)C1` [I-481], the 50% inhibitory concentration (IC50) under setting [2] was less than 2000 nM.
With `C[C@H]1CCN(c2cc(-n3ccnc3)c3ccc(Cl)c(Cl)c3n2)[C@@H]1C(=O)O` [I-482], under setting [2], the IC50 was less than 2000 nM.
`CC1(C)CCN(c2cc(-n3ccnc3)c3ccc(Cl)c(Cl)c3n2)C1C(=O)O` (stereo not drawn) [I-483]: the IC50 under setting [2] lay within 2000 to 30000 nM.
On to `CC(C)(O)[C@@H]1CCCN1c1cc(-n2ccnc2)c2ccc(Cl)c(Cl)c2n1` [I-484], for which, under setting [2], the IC50 was 2000 to 30000 nM.
On the same count and under the same terms, the same measure for `O=C(O)[C@@H]1CSCN1c1cc(-n2ccnc2)c2ccc(Cl)c(Cl)c2n1` [I-485]: less than 2000 nM; for `O=C(O)[C@@H]1SCCN1c1cc(-n2ccnc2)c2ccc(Cl)c(Cl)c2n1` [I-486]: less than 2000 nM.
For `O=C(O)[C@@H]1CC[C@H](c2ccccc2)N1c1cc(-n2ccnc2)c2ccc(Cl)c(Cl)c2n1` [I-487], under setting [2], the IC50 was less than 2000 nM.
Same read-out and setting: the same measure for `O=C1CC2CCC(C1)N2c1cc(-n2ccnc2)c2ccc(Cl)c(Cl)c2n1` [I-488]: less than 2000 nM.
Consider `OC1CC2CCC(C1)N2c1cc(-n2ccnc2)c2ccc(Cl)c(Cl)c2n1` (stereo not drawn) [I-489], for which, under setting [2], the IC50 is less than 2000 nM.
The same measure, in the same setting: the same measure for `OC1CC2CCC(C1)N2c1cc(-n2ccnc2)c2ccc(Cl)c(Cl)c2n1` (stereo not drawn) [I-490]: less than 2000 nM; for `O=C1CC2CCCC(C1)N2c1cc(-n2ccnc2)c2ccc(Cl)c(Cl)c2n1` [I-491]: less than 2000 nM; for `OC1CC2CCCC(C1)N2c1cc(-n2ccnc2)c2ccc(Cl)c(Cl)c2n1` (stereo not drawn) [I-492]: 2000 to 30000 nM.
The same measure, in the same setting: with `O=C(O)C1CC2CCC(C1)N2c1cc(-n2ccnc2)c2ccc(Cl)c(Cl)c2n1` (stereo not drawn) [I-493] the figure was less than 2000 nM; with `O=C(O)C1CC2CCC1N2c1cc(-n2ccnc2)c2ccc(Cl)c(Cl)c2n1` (stereo not drawn) [I-494], less than 2000 nM.
As to `N#C[C@@H]1CCCN1c1cc(-n2ccnc2)c2ccc(Cl)c(Cl)c2n1` [I-495], the IC50 under setting [2] was less than 2000 nM.
Take `FC(F)(F)[C@@H]1CCCN1c1cc(-n2ccnc2)c2ccc(Cl)c(Cl)c2n1` [I-496]: under setting [2], the 50% inhibitory concentration (IC50) fell in the range of 2000 to 30000 nM.
Same read-out and setting: with `COC(=O)[C@H]1[C@H](O)CCN1c1cc(-n2ccnc2)c2ccc(Cl)c(Cl)c2n1` [I-497] the figure was 2000 to 30000 nM; with `O=C(O)[C@H]1[C@H](O)CCN1c1cc(-n2ccnc2)c2ccc(Cl)c(Cl)c2n1` [I-498], 2000 to 30000 nM; with `O=C(O)[C@H]1[C@@H](O)CCN1c1cc(-n2ccnc2)c2ccc(Cl)c(Cl)c2n1` [I-499], less than 2000 nM.
Take `COC(=O)[C@H]1[C@@H](O)CCN1c1cc(-n2ccnc2)c2ccc(Cl)c(Cl)c2n1` [I-500]: the IC50 under setting [2] was in the range of 2000 to 30000 nM.
As for `O[C@@H]1CN(c2cc(-n3ccnc3)c3ccc(Cl)c(Cl)c3n2)C[C@H]1O` [I-501], the IC50 under setting [2] is less than 2000 nM.
As for `NC(=O)[C@@H]1C[C@@H](O)CN1c1cc(-n2ccnc2)c2ccc(Cl)c(Cl)c2n1` [I-502], under setting [2], the IC50 lay in the range of 2000 to 30000 nM.
With `O=C1NCC2CCC1N2c1cc(-n2ccnc2)c2ccc(Cl)c(Cl)c2n1` (stereo not drawn) [I-503], the IC50 under setting [2] was less than 2000 nM.
For the molecule `OC[C@@H]1CC(F)(F)CN1c1cc(-n2ccnc2)c2ccc(Cl)c(Cl)c2n1` [I-504], under setting [2], the IC50 was less than 2000 nM.
Same read-out and setting: with `O=C(O)C12CC1CCN2c1cc(-n2ccnc2)c2ccc(Cl)c(Cl)c2n1` (stereo not drawn) [I-505] the figure was 2000 to 30000 nM; with `O=C(O)c1cccn1-c1cc(-n2ccnc2)c2ccc(Cl)c(Cl)c2n1` [I-506], 2000 to 30000 nM; with `O=C(O)[C@@H]1C[C@H](C(F)(F)F)CN1c1cc(-n2ccnc2)c2ccc(Cl)c(Cl)c2n1` [I-508], less than 2000 nM.
Consider `O=C(O)c1ccccc1S(=O)(=O)N[C@@H]1C[C@@H](C(=O)O)N(c2cc(-n3ccnc3)c3ccc(Cl)c(Cl)c3n2)C1` [I-509], for which the half-maximal inhibitory concentration (IC50) under setting [2] was less than 2000 nM.
Still for that read-out and setting: with `O=C(O)c1cccc(S(=O)(=O)N[C@@H]2C[C@@H](C(=O)O)N(c3cc(-n4ccnc4)c4ccc(Cl)c(Cl)c4n3)C2)c1` [I-510] the figure was less than 2000 nM; with `O=C(O)c1ccc(S(=O)(=O)N[C@@H]2C[C@@H](C(=O)O)N(c3cc(-n4ccnc4)c4ccc(Cl)c(Cl)c4n3)C2)cc1` [I-511], less than 2000 nM; with `O=C(O)CCS(=O)(=O)N[C@@H]1C[C@@H](C(=O)O)N(c2cc(-n3ccnc3)c3ccc(Cl)c(Cl)c3n2)C1` [I-512], less than 2000 nM.
Turning to `O=C(O)C12CC(Nc3cc(-n4ccnc4)c4ccc(Cl)c(Cl)c4n3)(C1)C2` [I-513], the IC50 under setting [2] was less than 2000 nM.
As for `O=C(O)[C@@H]1C[C@@H](O)CN1c1cc(-n2ccnc2)c2ccc(Cl)c(Cl)c2n1` [I-514], under setting [2], the IC50 was less than 2000 nM.
In the case of `O=C(O)[C@@H]1C[C@@H]2CCC[C@@H]2N1c1cc(-n2ccnc2)c2ccc(Cl)c(Cl)c2n1` [I-515], under setting [2], the IC50 was less than 2000 nM.
Still for that read-out and setting: with `CC1(C)C2[C@@H](C(=O)O)N(c3cc(-n4ccnc4)c4ccc(Cl)c(Cl)c4n3)C[C@@H]21` (stereo partly drawn) [I-517] the figure was less than 2000 nM; with `O=C(O)[C@@H]1C[C@@H](N2CCOCC2)CN1c1cc(-n2ccnc2)c2ccc(Cl)c(Cl)c2n1` [I-518], less than 2000 nM; with `N[C@@H]1C[C@@H](C(=O)O)N(c2cc(-n3ccnc3)c3ccc(Cl)c(Cl)c3n2)C1` [I-519], less than 2000 nM.
Same read-out and setting: the same measure for `O=C(O)[C@@H]1CC(F)(F)CN1c1cc(-n2ccnc2)c2ccc(Cl)c(Cl)c2n1` [I-520]: less than 2000 nM; for `O=C(O)[C@@H]1CN(c2cc(-n3ccnc3)c3ccc(Cl)c(Cl)c3n2)CCO1` [I-521]: less than 2000 nM.
`CC(C)(C)OC(=O)[C@H]1CCCN1C(=O)C[C@@H]1CCCN1c1cc(-n2ccnc2)c2ccc(Cl)c(Cl)c2n1` [I-522]: the IC50 under setting [2] lay within 2000 to 30000 nM.
Still for that read-out and setting: the same measure for `O=C(O)C1CCN(C(=O)C[C@@H]2CCCN2c2cc(-n3ccnc3)c3ccc(Cl)c(Cl)c3n2)C1` (stereo partly drawn) [I-524]: less than 2000 nM; for `CN(CCC(=O)O)C(=O)C[C@@H]1CCCN1c1cc(-n2ccnc2)c2ccc(Cl)c(Cl)c2n1` [I-525]: less than 2000 nM; for `CC(C)[C@H](NC(=O)C[C@@H]1CCCN1c1cc(-n2ccnc2)c2ccc(Cl)c(Cl)c2n1)C(=O)O` [I-526]: less than 2000 nM.
In the case of `CC(C)(NC(=O)C[C@@H]1CCCN1c1cc(-n2ccnc2)c2ccc(Cl)c(Cl)c2n1)C(=O)O` [I-527], the IC50 under setting [2] is less than 2000 nM.
Consider `O=C(C[C@@H]1CCCN1c1cc(-n2ccnc2)c2ccc(Cl)c(Cl)c2n1)N[C@@H](C(=O)O)c1ccccc1` [I-528], for which the IC50 under setting [2] was more than 30000 nM.
The same measure, in the same setting: the same measure for `O=C(O)C1CCN(C(=O)C[C@@H]2CCCN2c2cc(-n3ccnc3)c3ccc(Cl)c(Cl)c3n2)CC1` [I-529]: less than 2000 nM.
